Source: a melting point compilation (Tetko et al.; mined from patent text by program, amines drawn as free bases though some values may be those of a salt)

Row | Compound | melting point [°C]
1 | CNC(=O)Cc1cccc2ccoc12 | 138 to 142
2 | N#Cc1cnn(-c2ccc(Cl)c(Cl)c2Cl)c1Cl | 124 to 126
3 | COc1ccc2c(Cc3c(Cl)cncc3Cl)nnc(N(C)C)c2c1 | 170 to 173
4 | N[C@H]1CCN(c2ccc3c(C(=O)NCC4CCCCC4)cccc3n2)C1 | 127 to 128
5 | CC1(C)CC(N(CCO)S(C)(=O)=O)c2cc(OCc3ccccc3)ccc2O1 (stereo unspecified) | 78 to 80
6 | CC1=NC(NC(=O)Nc2cccc(C)c2)C(=O)N(CC(=O)N2CCC(C(N)=O)CC2)c2c(C)cccc21 (stereo unspecified) | 197 to 198
7 | CCn1c2s[nH]c(=O)c2c(=O)c2cc(F)c(F)c(OC(F)F)c21 | 211 to 213
8 | NC(=O)CCCCCc1nccc(NC(N)=NCC(F)(F)F)n1 | 179 to 181
9 | Cc1ccc2cc(-c3cccc4ccccc34)nc(Cl)c2c1 | 93
10 | Cn1c(-c2ccc(OC3CCN(C4CCCC4)CC3)cc2)nc2ncccc2c1=O | 175 to 177
11 | CCCCc1ccc(OC)c(-c2csc(NC(=O)c3ccc(C(=O)O)cc3)n2)c1 | 160
12 | O=C(NOCCO)c1cc(Cl)c(F)c(F)c1Nc1ccc(I)cc1 | 174 to 176
13 | C=CC(CC(O)C(CC(C)C)NC(=O)C(Cc1c[nH]cn1)NC(=O)C(Cc1ccccc1)NC(=O)OC(C)(C)C)C(C)C (stereo unspecified) | 82
14 | CCn1c(=O)c2c(ncn2CCCCC(O)CO)n(CC)c1=O (stereo unspecified) | 77 to 78
15 | O=C(c1ccc(-c2cnc3c(c2)N(Cc2c(Cl)cccc2Cl)C(=O)CN3)cc1)N1CCC(N2CCCC2)CC1 | 199
16 | CCN(CC)CCNC(=O)c1cc(Cl)c(N)cc1OCCSC | 118 to 120
17 | CCCc1c(SC(=O)N(C)C)ccc(C(C)=O)c1OCCCC(=O)OCC | 60 to 63
18 | O=[N+]([O-])c1ccccc1-c1ccc(CNc2nc(C(F)(F)F)nc3c2CCCC3)cc1 | 150 to 151
19 | O=C(O)c1cc(Oc2cc(Cl)c(Cl)cc2Cl)ccc1[N+](=O)[O-] | 157 to 161
20 | CC(C)(C)c1cc(C=C(C#N)C#N)cc(I)c1O | 188
21 | O=C1Cc2cccc(Oc3ccc(Cl)cc3)c2O1 | 100 to 102
22 | O=C(N[C@@H](CCC1CCCCC1)[C@@H](O)[C@@H](O)CN1CCOCC1)OCc1ccccc1 | 124 to 125
23 | O=C(CCCN1CCC(Cc2ccccc2)CC1)c1ccc2c(c1)C(=O)c1cc(C(=O)CCCN3CCC(Cc4ccccc4)CC3)ccc1-2 | 141 to 143
24 | CCC(=O)Oc1cc(C(=O)c2c(Cl)cccc2Cl)c(C)cc1OC | 142 to 145

Row | Compound | melting point [°C]
25 | COc1ccc2[nH]c(SCc3ncc(Br)c(N4CCCCC4)c3C)nc2c1 | 90 to 92
26 | CNC(=S)N(C)Cc1cccnc1 | 86 to 87
27 | CC(C)(C)OC(=O)NCCNC(=O)c1ncccc1N | 103 to 105
28 | Cc1cccc(C(=O)NC(Nc2c(Nc3cccnc3Cl)c(=O)c2=O)C(C)(C)C)c1 (stereo unspecified) | 238 to 239
29 | CC(=O)c1ccc2c(c1)C(C(=O)Nc1cccc(C(=O)Nc3ccc(Br)cc3)c1)C(=O)N2C (stereo unspecified) | 234 to 236
30 | C=CC[C@H]1Cc2c(OCOC)cccc2C(O)O1 (stereo partly specified) | 72 to 74
31 | CC(=O)OC(c1ccc(C(F)(F)F)cc1[N+](=O)[O-])c1cnoc1C1CC1 (stereo unspecified) | 82
32 | O=C(CN1CCC(Cc2ccccc2)CC1)Nc1cccc(NCc2ccccc2)c1 | 112 to 114
33 | CC(C(=O)c1ncn2c1c(=O)n(C(C)C)c1ccccc12)C(=O)C1CC1 (stereo unspecified) | 167 to 169
34 | CN(C)c1ccc(C2=NC[C@@H](OC(=O)Nc3ccccc3)[C@H](c3ccccc3)O2)cc1 (racemic) | 172
35 | CNCC(O)c1cccc(Cl)c1 (stereo unspecified) | 95.5 to 97
36 | CC1(C)CCC2=C(O1)c1ccccc1C1(OCC(CO)O1)C2=O (stereo unspecified) | 44 to 46
37 | COc1ccc(Cl)cc1N1CCN(CCCNC(=O)c2cccc3c(=O)c(C)c(C(N)=O)oc23)CC1 | 184 to 192
38 | N#Cc1ccc(-c2cccc(-c3nc4ccc(C#N)cc4[nH]3)n2)cc1 | 311 to 312
39 | Cn1c(=O)c(-c2c(Cl)cccc2Cl)cc2cnc(Nc3cccnc3)nc21 | 247 to 248
40 | CC(Oc1ncn(-c2ccccc2Cl)n1)C(=O)O (stereo unspecified) | 104 to 106
41 | N#CC(=NO)c1ccc(Cl)cc1Cl | 151
42 | C=CCN1C(C)(C)CC(OC(=O)CCC(C)(c2ccc(O)c(C(C)(C)C)c2)c2ccc(O)c(C(C)(C)C)c2)CC1(C)C | 197
43 | COC(=O)Nc1ccc(CN2CCC(C(O)(c3ccc(OC(F)(F)F)cc3)c3ccc(OC(F)(F)F)cc3)CC2)cc1 | 178 to 182
44 | CCCCNS(=O)(=O)c1cc(C(=O)O)cc(Cl)c1Cl | 160 to 165
45 | COC(=O)c1c(-c2nccn2C)c2cnc(N3CCC[C@H]3CO)nc2n(Cc2ccc(OC)c(Cl)c2)c1=O | 142 to 145
46 | Cc1cn(C2C=CC(CO)O2)c(=O)[nH]c1=S (stereo unspecified) | 117 to 118
47 | Cc1nc2cccc(S(=O)(=O)n3c(CCC(=O)O)cc4cc(Cl)ccc43)c2s1 | 188 to 189
48 | COC(=O)CC=C(CC(C)C)C(=O)O | 40 to 45

Row | Compound | melting point [°C]
49 | O=C(O)c1cc2sccc2cn1 | 212
50 | O=C(O)[C@@H](CCN1Cc2ccccc2C1=O)Oc1c(Br)cc(-c2c3ccccc3c(Br)c3sc4ccccc4c23)cc1Br | 239 to 241
51 | O=C(CC1CCN(CCCn2c(=O)[nH]c3ccccc32)CC1)c1ccc(F)cc1 | 208
52 | CCCCCCCCCCCCn1nnc(C(C(=O)Nc2cc(C)c(O)c(C)c2C)c2ccccc2)n1 (single isomer, unassigned; (+)) | 105
53 | O=[N+]([O-])c1ccc2c(C3=CCN(CCCOc4cccc5[nH]ccc45)CC3)c[nH]c2c1 | 215 to 225
54 | Cc1ccc(NC(=O)c2ccc(/C=C/C(=O)NO)s2)cc1Nc1nc(-c2cccnc2)cs1 | 242
55 | CCCc1cn(C)cc(-c2cccc(C(F)(F)F)c2)c1=O | 45 to 47
56 | Cc1cccc(C)c1N(CC(C)N1C(=O)c2ccccc2C1=O)S(C)(=O)=O (stereo unspecified) | 124 to 127
57 | COc1ccc(C(OCC2OC(n3cc(C)c(=O)[nH]c3=O)CC2O[Si](C)(C)C(C)(C)C)(c2ccccc2)c2ccc(OC)cc2)cc1 (stereo unspecified) | 214
58 | CC(O)c1cccc(-c2ccc3nc(-c4ccc(Cl)cc4)cn3c2)c1 (stereo unspecified) | 168 to 170
59 | COc1cccc(CNC(=O)c2nc3scc(COc4ccc(C(=O)O)cc4)c3c(=O)[nH]2)c1 | 297 to 299
60 | N#CCCCSc1nccc(NC(=S)NCC(F)(F)F)n1 | 125 to 126
61 | Cc1ccc2c(n1)sc1c(=O)n(C)nnc12 | 169 to 171
62 | CCNC(=O)CN1C(=O)C(NC(=O)OCc2ccccc2)N=C(c2ccccc2)c2ccccc21 (stereo unspecified) | 149
63 | CC(=O)N(C)c1scc(C)c1C(=O)c1ccccc1 | 122
64 | Cc1c(C)c2c(c(C)c1NCc1cccs1)C(c1ccc(C(C)C)cc1)C(C)(C)O2 (stereo unspecified) | 101 to 103
65 | CC(=O)NCC1CC(c2ccc(-n3cccc3)c(F)c2)=NO1 (single isomer, unassigned; (-)) | 176 to 177
66 | O=C(CCCN1CCC(O)CC1)c1ccccc1 | 101 to 102
67 | Nc1nc(-c2ccc(CCCCN3CCN(c4cccc5ccccc45)CC3)cc2)cs1 | 242 to 245
68 | O=C(Nc1ccc(C(=O)N2Cc3ccccc3Cc3ccccc32)cc1)c1ccc(F)cc1F | 215 to 217
69 | CC1(S(=O)(=O)c2ccccc2)CCc2nc(-c3ccccc3)[nH]c(=O)c2C1 (stereo unspecified) | > 250
70 | Cc1nsc(OCC(F)(F)F)c1S(N)(=O)=O | 148 to 149
71 | O=c1[nH]c2ccc(Cl)cc2n1CCCCl | 122
72 | O=S1NC(Cc2csc3ccccc23)=NO1 (stereo unspecified) | 134 to 136

Row | Compound | melting point [°C]
73 | CCN1CCCC(NC(=O)c2ccccc2Nc2ccnc3c(C(F)(F)F)cccc23)C1 (stereo unspecified) | 212 to 213
74 | CCCCOCCOc1ccc(-c2ccc(N3CC(C)C(C)C3)c(C=C(C)C(=O)O)c2)cc1 (stereo unspecified) | 126 to 128
75 | COCCOc1c(S(C)(=O)=O)ccc(Cl)c1C | 83 to 85
76 | OCCNc1nc(NCc2ccccc2)c2ncc(Nc3ncncn3)cc2n1 | 202 to 203
77 | CC(C(=O)n1c(=O)oc2ccccc21)C1(O)CCCCC1 (stereo unspecified) | 58 to 59
78 | CCCCC1=NOC(Cc2ccccc2)C(=O)N1 (stereo unspecified) | 82 to 85
79 | O=S1CCN(c2nc(N3CCNCC3)cc3c(F)cccc23)CC1 | 213 to 215
80 | COc1ccc(OCc2ccccc2)c2[nH]c(C)c(C)c12 | 76
81 | O=C(CC(=O)OCc1ccccc1)OCc1ccccc1 | 104 to 106
82 | CCCC(=O)Nc1c(C)c2c(c(Cc3ccc(C(C)C)cc3)c1C)OCC2 | 168 to 169
83 | CC(C)c1ccc(-n2c(CC(=O)O)c(C(=O)O)c3cc(Oc4ccc(Cl)c(Cl)c4)ccc32)cc1 | 174 to 180
84 | CCOC(=O)Nc1cc2c3ccccc3n(Cc3ccccc3)c2cn1 | 217 to 218
85 | CC(Oc1ncn(-c2cccc(Cl)c2)n1)C(=O)N(C)C (stereo unspecified) | 136 to 139
86 | CCN(CC)CCCNc1nnc(-c2ccc(F)c(F)c2Nc2ccc(I)cc2F)o1 | 116 to 118
87 | Cc1ccnc2c1C(=O)CC(c1cccs1)C2 (stereo unspecified) | 105 to 107
88 | CN1CCN(Cc2ccc(-c3cc4ncc(C#N)c(Nc5ccc(Oc6ccccc6)cc5)c4s3)cc2)CC1 | 199 to 201
89 | CC(C)c1cn(C(C)(C)C(=O)N(C)C)nc1-c1ccccc1 | 80.5 to 82.5
90 | C=CCC(C(=O)N1C(=O)OCC1Cc1ccccc1)c1ccc(F)cc1 (stereo unspecified) | 103 to 104
91 | Sc1nc(-c2ccc3c(c2)OCO3)c(-c2ccc3c(c2)OCO3)[nH]1 | 282 to 283
92 | CC1=C(c2ccncc2)SC(OC(=O)c2cccc(Cl)c2)C(=O)N1 (stereo unspecified) | 142 to 143
93 | COC(=O)Cc1ccc(OCCNC(=O)C2Cc3ccccc3N2S(=O)(=O)c2ccc(-c3ccc(C)cc3)c(C(F)(F)F)c2)cc1 (stereo unspecified) | 60
94 | O=c1c2cc(F)c(F)cc2n(-c2ccc(F)c(Cl)c2)c(=O)n1OCc1ccccc1 | 184 to 186
95 | COc1ccc(-c2nc(N)ncc2-c2ccc(=O)n(C(C)C)n2)cc1OC | 167
96 | N#Cc1ccc2oc3ncccc3c(=O)c2c1 | 260
